These are literature values, as cited in US10632107B2, “Crystalline forms of benzoquinoline inhibitors of vesicular monoamine transporter 2” (Apotex Inc., priority 2018, dated 2020).

Read-outs that look alike come from different tables or passages of the source.

For the compound `COc1cc2c(cc1OC)C1CC(=O)C(CC(C)C)CN1CC2` (racemic) [Tetrabenazine, rel-(3R,11bR)-1,3,4,6,7,11b-hexahydro-9,10-dimethoxy-3-(2-methylpropyl)-2H-benzo[a]quinolizin-2-one], the solubility result is, setting by setting: (low pH of the stomach) “slight solubility”; (pH values of greater than 4) “practically insoluble”.
